Measurements taken from US8173618B2, “Formulations for reducing neuronal degeneration” (University of Massachusetts, priority 2003, dated 2012).

Tests used:
murine cortical neurons = experiment: PHF-1 immunofluorescence in murine cortical neurons with or without folate; assay type: cell-based, mice; conditions: folate deficiency, two hours
Method: For immunocytochemistry to detect paired helical filament-1 (PHF-1) staining (as an index of tau phosphorylation), cells were fixed for 15 minutes with 4% paraformaldehyde in 0.1 M phosphate buffer and immunostained by sequential reaction with a mouse monoclonal PHF-1 antibody that was raised against tau from paired helical filaments isolated from the brains of Alzheimer disease patients. Incubation with PHF-1 antibody was followed by rhodamine conjugated goat anti-mouse IgG and visualization using methods known in the art. […] In these experiments, SH-SY-5Y cells were cultured in folate-deficient Dulbecco's Modified Essential Medium (DMEM; Sigma) in the absence of serum for two hours. Cortical neurons were prepared from 12 day embryonic C57/B16 day old mice using known methods. The cortical neurons were cultured for 3 days in neurobasal medium with B27 supplements ([…] et al., 1999, J. Biol. Chem., 274:30322-30327). […] Both the SH-SY-5Y cultures and the cortical neurons were processed for PHF-1 (paired helical filament 1) immunofluorescence using known methods ([…] et al., 1999 supra). Control cells cultured in the continued presence of normal folate levels were also processed. Phospho-tau was also examined using immunoblot analysis. […]

cortical neurons = experiment: Intracellular ROS by DCFD fluorescence in cortical neurons; assay type: cell-based, mice; conditions: folate deprivation for two hours
Method: Intracellular reactive oxygen species (ROS) were monitored as described in […] et al., 1999 (J. Biol. Chem., 274:30322-30327). Briefly, cells were incubated for 30 minutes with dichloro-fluorescein diacetate (DCFD; acetoxymethyl ester; Molecular Probes, Inc., Eugene, Oreg.), which is used to detect intracellular peroxide levels. Incubation was followed by rinsing of cultures in serum-free medium and immediate capture of images using UV optics. Images were captured under epifluorescent and phase-contrast illumination using a DAGE CCL-72 cooled CCD camera via a Scion LG-3 frame grabber operated by NIH Image (see the Internet at rsb.info.nih.gov/nih-image). Images were then stored as PICT files on a Macintosh Power PC 7100AV for subsequent analysis. At least 100 cells in randomly-selected fields from duplicate cultures derived from multiple experiments were scored for fluorescent intensity using NIH Image analysis software. Representative background areas devoid of cells were similarly analyzed and subtracted from cell values to yield net densitometric values. All fields for each individual assay were illuminated, captured, and processed under identical settings. Corresponding phase-contrast images were obtained. Cell aggregates were excluded from the assays; only individual cells were quantified. Values were exported to Excel for statistical analyses using Student's t test. […]

[1] = test system: differentiated SH-SY-5Y cells; experiment: Externalized phosphatidylserine (meracyanine fluorescence) as index of apoptosis in SH-SY-5Y cells; assay type: cell-based, human
Method: Levels of externalized phosphatidylserine (PS) were used as a measure of apoptosis (Rimon et al., 1997, J. Neurosci. Res., 48:563-570). Briefly, cultures were subjected to treatments then rinsed with PBS and incubated with 10 μl/ml merocyanine (Upstate Biotech, Lake Placid, N.Y.), followed by examination under rhodamine optics (Ekinci et al, 1999, J. Biol. Chem., 274:30322-30327).
The question of whether folate deficiency is associated with apoptosis was investigated. […] Overall detachment, a further sign of cell death, was evident by the seventh day in the serum-deprived cultures. The detachment phenomenon precluded longer experiments.
The effect of ALCAR on differentiated SH-SY-5Y cells treated with Abeta was examined. Cells were cultured in 20 μM Abeta in the presence and absence of ALCAR. Some cultures were pretreated with 50 μM ALCAR for 30 minutes. In these experiments, the ALCAR-containing medium was replaced with medium containing Abeta and no ALCAR then incubated for two hours before being assayed. Cultures were assayed for ROS, apoptosis, and ATP.

SH-SY-5Y cells = experiment: HPLC of homocysteine in SH-SY-5Y cell lysates and medium; assay type: cell-based, human
Method: Glutathione levels were quantified in homogenates of SH-SY-5Y cells. Cultures were rinsed twice with Tris-buffered saline (TBS), scraped from the plate in a small volume of TBS and homogenized on ice. Medium was also utilized for analysis of HCY along with cellular lysates, since HCY is normally exported from cells. Homogenates (100 μl) were reduced by mixing with 50 μl of 100 μM N-acetylcysteine or with 30 μl of 30 μM cystamine (as an internal standard) and 10 μl of tri-carboxyethylphosphine (100 mg/ml in 0.05 M HCl). Samples were vortexed, incubated at room temperature for 30 minutes, then centrifuged at 10,000×g for 10 minutes. 80 μl of the resulting supernatant were combined with 160 μl of 2 M boric acid/4 mM EDTA (pH 10.5), followed by 80 μl of 1.0 mg/ml SBDF [7-fluorobenzo-2-oxa-1,3-diazole-4-sulfonate] in boric acid/EDTA buffer). Samples were mixed, incubated for 60 minutes at 60° C., equilibrated to reach temperature, and 50 μl of the sample was then injected into a Hewlett Packard model 1090 HPLC, which is used with a 1046A fluorescence detector and a Hewlett Packard 4.6×60 mm high-speed analytical column packed with 3 μM ODs (C18) Hypersil silica. The mobile phase consisted of methanol/0.2 M acetate buffer pH 4.0 (2/98 by volume). Glutathione concentrations were then determined by comparison of peak area ratios of glutathione to the internal standard N-acetylcysteine in the sample compared to peak areas obtained for a glutathione standard curve. Samples were derived from 3-4 normal and 3-4 ApoE−/− mice for each dietary condition, from ≧2 independent experiments (total n≧6 for each diet for both experiments).
Medium was then decanted, cells were scraped from the plate and homogenized, and medium and cellular lysates, along with an aliquot of fresh medium that had not been in contact with cells, were subjected to HPLC analyses.

Nc1nc2ncc(CNc3ccc(C(=O)N[C@@H](CCC(=O)O)C(=O)O)cc3)nc2c(=O)[nH]1 [folate, folic acid]
average increase in PHF-1 immunofluorescence (murine cortical neurons): 1.5 fold
ROS (cortical neurons): increased reactive oxygen species (ROS)
meracyanine fluorescence (externalized PS) Mean ± SEM ([1]; +folate, Day 1, without serum): 34.0 ± 1.2 arbitrary fluorescent units
meracyanine fluorescence (externalized PS) Mean ± SEM ([1]; +folate, Day 3, without serum): 40.9 ± 2.0 arbitrary fluorescent units
meracyanine fluorescence (externalized PS) Mean ± SEM ([1]; +folate, Day 5, without serum): 63.7 ± 3.6 arbitrary fluorescent units
meracyanine fluorescence (externalized PS) Mean ± SEM ([1]; −folate, Day 1, without serum): 31.2 ± 1.4 arbitrary fluorescent units
meracyanine fluorescence (externalized PS) Mean ± SEM ([1]; −folate, Day 3, without serum): 44.1 ± 4.1 arbitrary fluorescent units
meracyanine fluorescence (externalized PS) Mean ± SEM ([1]; −folate, Day 5, without serum): 112.7 ± 5.7 arbitrary fluorescent units
homocysteine levels within cell lysates (SH-SY-5Y cells; both before and after folate deprivation): < 1 nM
homocysteine levels in medium (SH-SY-5Y cells; cells cultured two hours in the absence of folate): approximately 300 nM
homocysteine levels in medium (SH-SY-5Y cells; cells cultured two hours in the presence of folate): about 30 nM
